Patent US9255090B2, “Heterocyclyl derivatives and their use as prostaglandin D2 receptor modulators” (Actelion Pharmaceuticals Ltd., priority 2012, dated 2016)

Biological target: hCRTH2 receptor (Homo sapiens (Human), UniProt Q9Y5Y4)
Assay: hCRTH2 receptor membranes radioligand (3H-PGD2) displacement assay
Format: binding
Conditions: 3H-PGD2 radioligand displacement, HEK293-hCRTH2 membranes
Description: Biological Assays: Preparation of hCRTH2 Receptor Membranes and Radioligand Displacement Assay:
First, recombinant HEK293-hCRTH2 cells were detached from culture plates into 5 ml buffer A/plate (Buffer A: 5 mM Tris, 1 mM MgCl2-6H2O pH=7.4) using a rubber policeman. Cells were then transferred into centrifugation tubes and centrifuged for 5 min at 400 g. The cell pellet was resuspended in the same buffer and tubes were frozen at −80° C. Cells were thawed and membrane fragments were generated by homogenization using a polytron homogenizer (30 seconds). The membrane fragments were then centrifuged at 3000 g for 20 minutes and resuspended in buffer C (Buffer C: 75 mM Tris, 25 mM MgCl2, 250 mM Saccharose pH 7.4). Aliquots of membrane fragments were stored at −20° C.
Binding assay was performed in a final assay volume of 250 μl. First, 25 μl of test compound, previously diluted in Binding-Buffer (Binding-Buffer: 50 mM Tris-Base, 100 mM NaCl, 1 mM EDTA, 0.1% BSA (protease free), 0.01% NaN3, 10 mM MnCl2, pH 7.0) was placed into each well. After addition of 75 μl Binding-Buffer, 50 μl of the radioligand ^3H-PGD2 (at 2.5 nM (220.000 dpm/well) from ANAWA ART0662) was added to each well. Binding assay was started by addition of 100 μl CRTH2 membrane fragments, reaching a final concentration of 20 μg/well. For non-specific binding, PGD2 was added to the reaction mixture to […] final concentration. This assay mix was incubated for 90 minutes at room temperature and then filtered through a GF/C filter 96-well plate which was pre-soaked for 3 hours in 0.5% polyethyleneimine (PEI). The filter-wells were washed three times with ice cold Binding-Buffer. Then, 40 μl of Microscint-40 (Packard) was added to each well and the retained radioactivity quantified in a Topcount (Packard).

hCRTH2 receptor, sequence (Q9Y5Y4 whole entry): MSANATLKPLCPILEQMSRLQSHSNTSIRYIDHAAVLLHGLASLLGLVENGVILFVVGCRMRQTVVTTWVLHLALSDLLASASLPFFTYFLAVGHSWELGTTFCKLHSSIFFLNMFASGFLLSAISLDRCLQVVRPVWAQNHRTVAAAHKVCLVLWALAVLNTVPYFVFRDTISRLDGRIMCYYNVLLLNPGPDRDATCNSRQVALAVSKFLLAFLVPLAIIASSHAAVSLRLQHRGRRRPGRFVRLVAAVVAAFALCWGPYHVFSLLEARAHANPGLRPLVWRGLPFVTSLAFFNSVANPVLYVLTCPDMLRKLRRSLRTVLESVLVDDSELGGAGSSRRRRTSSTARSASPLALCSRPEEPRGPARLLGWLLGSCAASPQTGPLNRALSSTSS

| IC50 [µM] | Compound |
| --- | --- |
| 0.0323 | CCOc1ccc(CC(=O)O)cc1-c1ccc(F)c2c1CN(C(=O)CCc1ncccc1OC)CC2 [Example 309, (4-Ethoxy-3-{5-fluoro-2-[3-(3-methoxy-pyridin-2-yl)-propionyl]-1,2,3,4-tetrahydro-isoquinolin-8-yl}-phenyl)-acetic acid] |
| 0.0039 | CCOc1ccc(CC(=O)O)cc1-c1ccc(F)c2c1CN(C(=O)CCc1cccc(F)c1)CC2 [Example 311, (4-Ethoxy-3-{5-fluoro-2-[3-(3-fluoro-phenyl)-propionyl]-1,2,3,4-tetrahydro-isoquinolin-8-yl}-phenyl)-acetic acid] |
| 0.0092 | CCOc1cc(CC(=O)O)ccc1-c1ccc(F)c2c1CN(C(=O)NCc1ccccn1)CC2 [Example 448, (3-Ethoxy-4-{5-fluoro-2-[(pyridin-2-ylmethyl)-carbamoyl]-1,2,3,4-tetrahydro-isoquinolin-8-yl}-phenyl)-acetic acid] |
| 0.0101 | O=C(O)Cc1ccc(F)c(-c2ccc(F)c3c2CN(C(=O)OCc2ccccc2)CC3)c1 [Example 10, 8-(5-Carboxymethyl-2-fluoro-phenyl)-5-fluoro-3,4-dihydro-1H-isoquinoline-2-carboxylic acid benzyl ester] |
| 0.0114 | CCOc1ccc(CC(=O)O)cc1-c1ccc(F)c2c1CN(C(=O)CC(C)c1ccc(F)cc1)CC2 (centres unmarked) [Example 212, (4-Ethoxy-3-{5-fluoro-2-[3-(4-fluoro-phenyl)-butyryl]-1,2,3,4-tetrahydro-isoquinolin-8-yl}-phenyl)-acetic acid] |

The next lines start with the compound.

| Compound | IC50 [µM] |
| --- | --- |
| COc1ccc(CC(=O)O)cc1-c1ccc(F)c2c1CN(C(=O)C1Cc3ccccc3CO1)CC2 (racemic) [Example 274] | 0.0582 |
| COc1c(CC(=O)O)cccc1-c1ccc(F)c2c1CN(C(=O)OCc1ccccc1)CC2 [Example 423, 8-(3-Carboxymethyl-2-methoxy-phenyl)-5-fluoro-3,4-dihydro-1H-isoquinoline-2-carboxylic acid benzyl ester] | 0.18 |
| COc1ccc(CC(=O)O)cc1-c1ccc(F)c2c1CN(C(=O)OC(C)C)CC2 [Example 143, 8-(5-Carboxymethyl-2-methoxy-phenyl)-5-fluoro-3,4-dihydro-1H-isoquinoline-2-carboxylic acid isopropyl ester] | 0.348 |
| O=C(O)COc1ccc(Cl)cc1-c1ccc(F)c2c1CN(C(=O)OCc1ccccc1)CC2 [Example 145, 8-(2-Carboxymethoxy-5-chloro-phenyl)-5-fluoro-3,4-dihydro-1H-isoquinoline-2-carboxylic acid benzyl ester] | 0.43 |
| COc1cc(OC(C)C(=O)O)ccc1-c1ccc(F)c2c1CN(C(=O)OCc1ccccc1)CC2 (centres unmarked) [Example 202, 8-[4-(1-Carboxy-ethoxy)-2-methoxy-phenyl]-5-fluoro-3,4-dihydro-1H-isoquinoline-2-carboxylic acid benzyl ester] | 0.179 |
| Cc1cccc(CCC(=O)N2CCc3c(F)ccc(-c4cc(CC(=O)O)ccc4OCC(F)(F)F)c3C2)n1 [Example 304, [3-{5-Fluoro-2-[3-(6-methyl-pyridin-2-yl)-propionyl]-1,2,3,4-tetrahydro-isoquinolin-8-yl}-4-(2,2,2-trifluoro-ethoxy)-phenyl]-acetic acid] | 0.0126 |
| COc1ccc(CC(=O)O)cc1-c1ccc(F)c2c1CCN(C(=O)OCc1ccccc1)C2 [Example 159, 5-(5-Carboxymethyl-2-methoxy-phenyl)-8-fluoro-3,4-dihydro-1H-isoquinoline-2-carboxylic acid benzyl ester] | 0.594 |
| COc1ccc2[nH]cc(CCC(=O)N3CCc4c(F)ccc(-c5cc(CC(=O)O)ccc5OC)c4C3)c2c1 [Example 63, (3-{5-Fluoro-2-[3-(5-methoxy-1H-indol-3-yl)-propionyl]-1,2,3,4-tetrahydro-isoquinolin-8-yl}-4-methoxy-phenyl)-acetic acid] | 0.0295 |
| COc1ccc(CC(=O)O)cc1-c1ccc(Cl)c2c1CN(C(=O)COCc1ccccc1Cl)CC2 [Example 73, (3-{5-Chloro-2-[2-(2-chloro-benzyloxy)-acetyl]-1,2,3,4-tetrahydro-isoquinolin-8-yl}-4-methoxy-phenyl)-acetic acid] | 0.0302 |
